Source: patent publication US10703746B2, “Mutant IDH1 inhibitors useful for treating cancer” (THE UNITED STATES OF AMERICA, AS REPRESENTED BY THE …, priority 2014, dated 2020)

Key:
[1] = target: IDH1 R132C (Homo sapiens, UniProt O75874, R132C); test: IDH1 R132C enzymatic assay (NADPH depletion coupled to diaphorase/resazurin); assay type: biochemical; details: enzymatic inhibition, IDH1 R132C
Outline: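 NADPH depletion, read via diaphorase/resazurin coupling, after adding substrate at 0.6 mM α-KG and 0.012 mM NADPH. Beforehand, 0.00032 mg/mL enzyme sat with compound 30 min at room temperature in pH 6.5 potassium phosphate buffer with MgCl2, glycerol and BSA.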

[2] = target: IDH1 R132H (Homo sapiens, UniProt O75874, R132H); test: IDH1 R132H enzymatic assay (NADPH depletion coupled to diaphorase/resazurin); assay type: biochemical; details: enzymatic inhibition, IDH1 R132H
Sequence of IDH1 R132H (O75874 whole entry R132H): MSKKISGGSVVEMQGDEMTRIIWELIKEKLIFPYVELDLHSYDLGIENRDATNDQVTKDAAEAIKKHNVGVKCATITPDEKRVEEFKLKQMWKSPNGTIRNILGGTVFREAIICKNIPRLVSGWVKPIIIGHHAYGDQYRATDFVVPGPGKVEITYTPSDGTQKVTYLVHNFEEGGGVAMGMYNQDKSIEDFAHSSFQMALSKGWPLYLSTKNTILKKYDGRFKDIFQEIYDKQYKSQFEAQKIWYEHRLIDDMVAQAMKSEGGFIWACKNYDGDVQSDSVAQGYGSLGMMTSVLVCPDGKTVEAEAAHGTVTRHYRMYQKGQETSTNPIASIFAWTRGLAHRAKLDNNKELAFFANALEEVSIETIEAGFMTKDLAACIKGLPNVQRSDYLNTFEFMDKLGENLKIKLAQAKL

Sequence of IDH1 R132C (O75874 whole entry R132C): as the sequence (O75874 whole entry R132H) above, with H132C counted along it

With CCc1cccc(CC)c1-n1c(CC(C)C)c(C(=O)N2CCNCC2)cc(-n2ccc(-c3ccc(Cl)cc3)n2)c1=O [Compound 452] the IC50 [1] was < 0.3 µM and the IC50 [2] was < 0.3 µM.

An IC50 [1] of 1 to 5 µM and an IC50 [2] of 0.3 to 1 µM were found for CCc1cccc(CC)c1-n1c(CC(C)C)c(C(=O)N2CCNCC2)cc(-c2nc(-c3ccc(Cl)cc3)c(C(=O)NC)s2)c1=O [Compound 454] in this work.

An IC50 [1] of 0.3 to 1 µM and an IC50 [2] of 1 to 5 µM were found for CCc1cccc(CC)c1-n1c(CC2CCCCO2)c(C(=O)N2CCNCC2)cc(-c2nc(-c3ccc(Cl)cc3)cs2)c1=O (stereo not drawn) [Compound 455] in this work.

An IC50 [1] of 0.3 to 1 µM and an IC50 [2] of 0.3 to 1 µM were found for CCc1cccc(CC)c1-n1c(C(CC)OC)c(C(=O)N2CCNCC2)cc(-c2nc(-c3ccc(Cl)cc3)cs2)c1=O (stereo not drawn) [Compound 456] in this work.

With CCc1cccc(CC)c1-n1c(C2CCCO2)c(C(=O)N2CCNCC2)cc(-c2nc(-c3ccc(Cl)cc3)cs2)c1=O (stereo not drawn) [Compound 457] the IC50 [1] was < 0.3 µM and the IC50 [2] was < 0.3 µM.

For CCOc1ccc(-n2ccc(-c3cc(C(=O)N4CCNCC4)c(CC(C)C)n(-c4c(CC)cccc4CC)c3=O)n2)cc1 [Compound 458], the IC50 [1] was < 0.3 µM and the IC50 [2] was < 0.3 µM.

CCc1cccc(CC)c1-n1c(C(C)OC)c(C(=O)N2CCNCC2)cc(-c2nc(-c3ccc(Cl)cc3)cs2)c1=O (stereo not drawn) [Compound 459] was tested, and the IC50 [1] was < 0.3 µM and the IC50 [2] was < 0.3 µM.

An IC50 [1] of 5 to 20 µM and an IC50 [2] of 5 to 20 µM were found for Cc1ccc(CN2CCN(C)CC2)cc1-n1c2c(cc(-c3nc(-c4ccc(Cl)cc4)cs3)c1=O)C(=O)CC(C)(C)C2 [Compound 460] in this work.

In the case of COc1cccc(OC)c1-n1c(CC(C)C)c(C(=O)N2CCNCC2)cc(-c2nc(-c3ccc(Cl)cc3)cs2)c1=O [Compound 461], the IC50 [1] is reported as 0.3 to 1 µM and the IC50 [2] is reported as < 0.3 µM.

An IC50 [1] of 5 to 20 µM and an IC50 [2] of 5 to 20 µM were found for Cc1ccccc1Oc1nc(C)c(C(=O)N2CCNCC2)cc1-c1nc(-c2ccc(Cl)cc2)cs1 [Compound 462] in this work.

With CCOc1ccc(Cl)cc1-n1c(C=C(C)C)c(C(=O)N2CCNCC2)cc(-c2nc(-c3ccc(Cl)cc3)cs2)c1=O [Compound 463] the IC50 [1] was < 0.3 µM and the IC50 [2] was < 0.3 µM.

An IC50 [1] of 1 to 5 µM and an IC50 [2] of 0.3 to 1 µM were found for CCc1cccc(CC)c1-n1c(CC(C)C)c(C(=O)N2CCNCC2)cc(-c2nc(-c3ccc(Cl)cc3)c(C(=O)N(C)C)s2)c1=O [Compound 464] in this work.

For CCc1cccc(CC)c1-n1c(CC(C)C)c(C(=O)N2CCNC3(CCC3)C2)cc(-c2nc(-c3ccc(Cl)cc3)cs2)c1=O [Compound 465], the IC50 [1] was < 0.3 µM and the IC50 [2] was < 0.3 µM.

An IC50 [1] of 5 to 20 µM and an IC50 [2] of 1 to 5 µM were found for CCc1ncc(OC)cc1-n1c(C=C(C)C)c(C(=O)N2CCNCC2)cc(-c2nc(-c3ccc(C(F)F)cn3)cs2)c1=O [Compound 466] in this work.

With COc1cccc(OC)c1-n1c(C=C(C)C)c(C(=O)N2CCNCC2)cc(-c2nc(-c3ccc(Cl)cc3)cs2)c1=O [Compound 467] the IC50 [1] was < 0.3 µM and the IC50 [2] was < 0.3 µM.

An IC50 [1] of 5 to 20 µM and an IC50 [2] of 5 to 20 µM were found for Cc1cccc(CN2CCN(C)CC2)c1-n1c2c(cc(-c3nc(-c4ccc(Cl)cc4)cs3)c1=O)C(=O)CCC2 [Compound 468] in this work.

An IC50 [1] of 1 to 5 µM and an IC50 [2] of 0.3 to 1 µM were found for CCOc1ncc(Cl)cc1-n1c(C=C(C)C)c(C(=O)N2CCNCC2)cc(-c2nc(-c3ccc(C(F)F)cn3)cs2)c1=O [Compound 469] in this work.

An IC50 [1] of 5 to 20 µM and an IC50 [2] of 1 to 5 µM were found for Cc1ccccc1-n1c(C)c(C(=O)N2CCNCC2)cc(-c2nc(-c3ccc(Cl)cc3)cs2)c1=O [Compound 470] in this work.

An IC50 [1] of 1 to 5 µM and an IC50 [2] of 1 to 5 µM were found for Cc1conc1-n1c2c(cc(-c3nc(-c4ccc(Cl)cc4)cs3)c1=O)C(=O)CC(C)(C)C2 [Compound 472] in this work.

With CCCc1c(C(=O)N2CCNCC2)cc(-c2nc(-c3ccc(Cl)cc3)cs2)c(=O)n1-c1c(CC)cccc1CC [Compound 473] the IC50 [1] was < 0.3 µM and the IC50 [2] was < 0.3 µM.

An IC50 [1] of 1 to 5 µM and an IC50 [2] of 0.3 to 1 µM were found for CCOc1ncc(F)cc1-n1c(C=C(C)C)c(C(=O)N2CCNCC2)cc(-c2nc(-c3ccc(C(F)F)cn3)cs2)c1=O [Compound 474] in this work.

An IC50 [1] of 0.3 to 1 µM and an IC50 [2] of 0.3 to 1 µM were found for CCc1cccc(CC)c1-n1c2c(cc(-c3nc(-c4ccc(Cl)cc4)cs3)c1=O)C(=O)OC(C)(C)C2 [Compound 475] in this work.

In the case of CCOc1ccc(F)cc1-n1c(C=C(C)C)c(C(=O)N2CCNCC2)cc(-c2nc(-c3ccc(C(F)(F)F)nc3)cs2)c1=O [Compound 477], the IC50 [1] is reported as 0.3 to 1 µM and the IC50 [2] is reported as < 0.3 µM.

CCc1cccc(CC)c1-n1c(C=C(C)C)c(C(=O)N2CCNC(CO)C2)cc(-c2nc(-c3ccc(Cl)cc3)cs2)c1=O (stereo not drawn) [Compound 478] was tested, and the IC50 [1] was < 0.3 µM and the IC50 [2] was < 0.3 µM.

An IC50 [1] of 5 to 20 µM and an IC50 [2] of 5 to 20 µM were found for CCc1cccc(CC)c1-n1c(C=C(C)C)c(C(=O)N2CCN(c3ccccc3C(F)(F)F)CC2)cc(-c2nc(-c3ccc(Cl)cc3)cs2)c1=O [Compound 480] in this work.

For O=C1CCCc2c1cc(-c1nc(-c3ccc(Cl)cc3)cs1)c(=O)n2-c1cccnc1 [Compound 481], the IC50 [1] was > 20 µM and the IC50 [2] was > 20 µM.

CCc1cccc(CC)c1-n1c(C=C(C)C)c(C(=O)N2CCN[C@H](C)C2)cc(-c2nc(-c3ccc(C(F)(F)F)cc3)cs2)c1=O [Compound 483] was tested, and the IC50 [1] was < 0.3 µM and the IC50 [2] was < 0.3 µM.
